Laboratory results published in patent publication US20230285357A1, “COMPOSITIONS AND METHODS FOR […] CELLS” (The Regents of the University of California, priority 2020, published 2023).

What was measured:
osteoblasts = assay: RNA sequencing of SB216763-treated osteoblasts; type: cell-based, mouse
Description: The differential expression profiles of SB216763-treated osteoblasts using RNA sequencing was examined. […] These overlapped with 1357 genes identified as low expression when osteoblast vs EC was compared, and a 307-gene cohort with decreased expression in both analyses was identified (FIG. 1, Part G). Gene Ontology (GO) termed these genes enriched for the signal pathway of osteoblastic differentiation and bone development (FIG. 1, Part G). Similarly, 519 genes with increased expression after SB21673 treatment were found (FIG. 1, Part H).
For RNA sequencing, osteoblasts were treated with 10 μM SB216763 for 14 days, and RNA was isolated for library preparation. The sequencing was conducted by the Pathology Research Services at UCLA. Spliced Transcripts Alignment to Reference (STAR) was used for the read alignment. Cufflinks was used to assemble transcripts, estimate their abundances, and assess the differential expression. GO analysis and pathway enrichment of the identified genes were performed.

ectopic bone formation = assay: Ectopic bone formation in vivo after transplantation of treated cells; set-up: species or system mouse
Protocol: To assess the functional capacity of SB216763-treated osteoblasts, they were treated with osteogenic induction media in vitro. […] A transplantation experiment was then performed to examine the capacity for bone formation using a well-established bone formation assay in vivo. This assay was adapted and eGFP positive cells were used, which were isolated from SB216763-treated Flk1-eGFP osteoblasts (FIG. 2, Part A).
The cells were then subjected to osteogenic induction media. […] Cells was transplanted into nude mice to test ectopic bone formation.
MicroCT imaging was performed at the Crump Imaging Center at UCLA. All the samples were scanned on a high-resolution, volumetric microCT scanner (CT125). The image data were acquired with the following parameters: 10 μm isotropic voxel resolution; 200 ms exposure time; 2,000 views and 5 frames per view. The microCT-generated DICOM files were used to analyze the samples and to create volume renderings of the regions of interest. The raw data files were viewed using the MicroView 3-D volume viewer and analysis tool (GE Healthcare) and AltaViewer™ Software. Additionally, images of the samples were generated using SCIRun (Scientific Computing and Imaging Institute).
All the surgeries were performed on a heated pad with a connection to a continuous flow of isoflurane. Ectopic bone formation was performed as previously described: 5×10^5 cells were mixed with 40 mg hydroxyapatite/tricalcium phosphate power (SALVIN™, ORASTRUCT-0.5 CC) and incubated in a 1 ml syringe at 37° C. in 5% CO2 overnight. After disinfection with 70% ethanol, a skin incision was made on the back of mouse. A subcutaneous pouch was formed by blunt dissection. The mixture of cells and hydroxyapatite/tricalcium phosphate was transplanted into the pouch and the incision was closed. The implants were examined by microCT imaging and histology 12 weeks after transplantation.

[1] = system: eGFP positive cells from SB216763-treated Flk1-eGFP osteoblasts; assay: Tube formation assay in vitro; type: cell-based, mouse
Protocol: Then, same cells in a model of hindlimb ischemia in nude mice to evaluate the capacity of eGFP positive cells in vascular repair were tested. After ligation of the proximal and distal femoral artery, eGFP positive cells were transplanted (FIG. 2, Part F). Human aortic endothelial cells (HAECs) and osteoblasts were used as controls.
Tube formation assays in vitro was then tested. […] Cells into hindlimb ischemia mouse model were transplanted.

[2] = system: promoter region of Smad1 gene; assay: ChIP assay of β-catenin DNA-binding and histone modification in promoter of Smad1 gene; type: cell-based, mouse
Description: The expression of transcription factors that are known to be involved in bone formation or vascular development were screened. […] To determine if excess β-catenin affected SMAD1 expression, β-catenin in SB216763-treated osteoblasts was depleted by using siRNA. […] DNA-binding sites of β-catenin by locating the binding motifs in Smad1 gene was explored, and identified four individual sites located at −196 bp, −1454 bp, −2805 bp and −4729 bp upstream of exon1 of Smad1 gene (FIG. 3, Part D). […] Then, transcriptional status of Smad1 was determined by examining the histone modification, including trimethylated histone H3 lysine 4 (H3K4me3) associated with active transcription and H3K27me3 a closed chromatin mark.
βChIP assays were performed as previously described. Specific antibodies for β-catenin were used (R&D System, MAB2006), H3k4me3 (Abcam, ab8580) and H3k27me3 (Abcam, ab6002). The primers for the real-time PCR: 5′GAAAATAACACAGGCTTTG3′ (SEQ ID NO: 13) and 5′ GCTCCCCGAGCCTGGATT 3′ (SEQ ID NO: 14); 5′ GGACAGAGGCTCTCATTCC 3′ (SEQ ID NO: 15) and 5′[…]3′ (SEQ ID NO: 16) and 5′[…]3′ (SEQ ID NO: 17) 5′[…]3′ (SEQ ID NO: 18); 5′[…]3′ (SEQ ID NO: 19) and 5′[…]3′ (SEQ ID NO: 20).

[3] = system: vascular calcification in Mgp−/− mice; assay: Early vascular calcification in Mgp−/− mice; type: in vivo, mouse; conditions: Mgp−/− mice at 2 weeks of age, 5 ug/g daily for 2 weeks
Protocol: To examine whether SB216763 could be used for treatment of vascular calcification, the Mgp^−/− mouse was chosen, a well-known model of calcification. Mgp^−/− mice develop arterial calcification as early as postnatal day 14. At 4 weeks of age, the entire arterial vasculature is severely calcified. Two independent experiments were performed to test if SB216763 decreased calcification in Mgp^−/− mice. First, young Mgp^−/− mice at 2 weeks of age with SB216763 were treated (5 ug/g daily) for 2 weeks to determine if SB216763 prevented osteogenesis in the Mgp^−/− aortas (FIG. 5, Part A).
Mgp^+/− (B6.129S7-Mgptm1Kry/KbosJ), Col1α1^CreERT2 (B6.Cg-Tg(Col1α1-cre/ERT2)1Crm/J), GSK3β^flox/flox (B6.129(Cg)-Gsk3btm2Jrw/J) and Osx-Gfptg (B6.Cg-Tg(Sp7-tTA,tetO-EGFP/cre)1Amc/J) mice on C57BL/6J background were purchased from the Jackson Laboratory. Genotypes were confirmed by PCR, and experiments were performed with generation F4-F6. Littermates were used as wild type controls. All mice were fed a standard chow diet. The studies were reviewed and approved by the Institutional Review Board and conducted in accordance with the animal care guidelines set by the University of California, Los Angeles (UCLA). The investigation conformed to the National Research Council, Guide for the Care and Use of Laboratory Animals, Eighth Edition (Washington, D.C.: The National Academies Press, 2011).

[4] = 4-fold differential threshold level

Cn1cc(C2=C(c3ccc(Cl)cc3Cl)C(=O)NC2=O)c2ccccc21 [SB216763]
transcript profile (osteoblasts; 10 μM for 14 days): increased the similarities between the treated osteoblasts and ECs | cohort with decreased expression in both analyses (overlap with osteoblast vs EC low expression genes) (osteoblasts; [4]): 307 gene | cohort with increased expression in both analyses (overlap with EC vs osteoblast high expression genes) (osteoblasts; [4]): 235 genes | genes decreased in expression (osteoblasts; [4]): 827 genes | genes with increased expression (osteoblasts; [4]): 519 genes | osteocytes in implants, histology and immunostaining (ectopic bone formation; SB216763-treated cells with SMAD1 overexpression or knockdown of β-catenin): presence of osteocytes | osteocytes in implants, histology and immunostaining (ectopic bone formation; implants with eGFP positive cells from treated osteoblasts): lack of osteocytes | ectopic bone by microCT (ectopic bone formation; implants with eGFP positive cells from treated osteoblasts vs osteoblast controls): smaller size of ectopic bone, less trabecular formation and less bone volume | tube formation ([1]; SB216763-treated cells with β-catenin depletion): decrease of tube formation | tube formation ([1]; eGFP positive cells from treated osteoblasts): robust tube formation | histone modification H3K4me3 and H3K27me3 around β-catenin binding sites in Smad1 promoter ([2]; treated osteoblasts): lower abundance of H3K4me3 with higher abundance H3K27me3 | β-catenin abundance around binding sites upstream of exon1 of Smad1 gene ([2]; treated osteoblasts vs non-treated controls): more abundance of β-catenin | CD31+ aortic cells co-expressing VE-cadherin and osterix, FACS [3]: decreased number of cells that co-expressed VE-cadherin and osterix | CD31+ aortic cells expressing only VE-cadherin, FACS [3]: increased number of cells that only expressed VE-cadherin | aortic mineralization, von Kossa staining [3]: dramatic decrease in aortic mineralization | immunoblotting of aortic tissues [3]: decreased Cbfa1 and osterix, increased von Willebrand factor (vWF) and VE-cadherin and altered SMAD1 and β-catenin | total aortic calcium [3]: decrease in calcium deposition
